The text below walks through data of US20240115549A1, “TREATMENT OF MENTAL DISORDERS” (GH Research Ireland Limited, priority 2022, published 2024).

Data set [1] relates to Escherichia coli WP2 uvrA pKM101. Put plainly: Bacterial mutation test, Escherichia coli. It is filed as cell-based. The following applies: up to 5000 pg/plate, with and without S-9. The text has this:
These conditions included treatments at concentrations up to […] (the maximum recommended concentration according to current regulatory guidelines), in the absence and in the presence of a rat liver metabolic activation system (S-9).

Data set [2] can be described thus: Pharmacokinetics of 5-MeO-DMT and bufotenine after inhalation. It is filed as in vivo, human.
The nature of data set [3]: LC-MS/MS of 5-MeO-DMT, bufotenine and 5-MIAA in breastmilk, serum and urine of a treated PPD patient; infant dose estimates. The following applies: for Breastmilk concentration / Serum concentration / Urine concentration: second PPD patient, LC-MS/MS.
Setting [4] is: 5 kg infant, three feeds of 250 ml.
Setting [5] is: 8.5 hrs after last dose, inhaled 5-MeO-DMT.
Where [6] appears, read: 24.0 hrs after last dose, inhaled 5-MeO-DMT.
[7] abbreviates: 120.0 hrs after last dose, inhaled 5-MeO-DMT.
Where [8] appears, read: timepoint −24.0 hrs (pre-dosing), inhaled 5-MeO-DMT 6 mg then 12 mg.

Turning to `COc1ccc2[nH]cc(CCN(C)C)c2c1` [5-MeO-DMT], in data set [1], the Induction of mutation entry is listed as “did not induce mutation”. Further, in data set [2] (3 hours after inhalation, 6-18 mg), the Detectability in plasma result was “no longer detectable”. In data set [2] (repeat within 1 to 4 hours), the “Accumulation upon repeated administration” value is recorded as “No accumulation”. Moreover, the “DID per kg infant weight” value in data set [3] (setting [4]) is 0.0001385 mg/kg/day. Further, the “Total exposure of the infant (DID)” value in data set [3] (setting [4]) is 0.0006924 mg/day. In data set [3] (after 24 hours), the “Detection in breastmilk” value is on record as “did not detect any 5-MeO-DMT”. In addition, the “Serum concentration at timepoints after 1 hour” value in data set [3] (all subsequent timepoints) is given as “below the lower limit of quantification”. For the same compound, the Breastmilk concentration in data set [3] (1.0 hrs after last dose, inhaled 5-MeO-DMT) was 2167.0 pg/mL; in data set [3] (2.5 hrs after last dose, inhaled 5-MeO-DMT), 560.6 pg/mL; in data set [3] (setting [5]), 42.1 pg/mL; in data set [3] (setting [6]) it was “BLG”; in data set [3] (setting [7]), “BLQ”; in data set [3] (setting [8]) it was “BLQ”. For the same compound, the concentration at 1 h in data set [3] (female, human, serum, inhaled) was 133 µg/mL. For the same compound, the Serum concentration in data set [3] (serum, 1.0 hrs after last dose, inhaled 5-MeO-DMT) is 132.9 pg/mL; in data set [3] (serum, 2.5 hrs after last dose, inhaled 5-MeO-DMT) it was “BLQ”; in data set [3] (serum, 24.0 hrs after last dose, inhaled 5-MeO-DMT), “BLQ”; in data set [3] (serum, 120.0 hrs after last dose, inhaled 5-MeO-DMT), “BLQ”; in data set [3] (serum, timepoint −24.0 hrs (pre-dosing), inhaled 5-MeO-DMT 6 mg then 12 mg), “BLQ”. In addition, the Urine concentration entry in data set [3] (setting [5]), in data set [3] (setting [6]), in data set [3] (setting [7]) and in data set [3] (setting [8]) was “BLQ” throughout.
